These results are taken from patent US20050234113A1, “Antioxidant and radical scavenging activity of synthetic analogs of desferrithiocin” (University of Florida Research Foundation, Inc., priority 2002, published 2005).

Values joined by “and” are separate entries in the source; they are usually repeats but may differ in a detail not shown here. Identical values can stand only once. “Also recorded” adds a separate entry of the source.

Assay [1] concerns iron. Put plainly: Iron clearance in the iron-overloaded Cebus apella monkey. The format is in vivo. Conditions: as sodium salt. The procedure:
The monkeys were iron overloaded with intravenous iron dextran to provide about 500 mg iron per kg body weight. The serum transferrin iron saturation rose to between 70 and 80%. At least twenty half-lives, sixty days, elapsed before any of the animals were used in experiments evaluating iron-chelating agents.
Fecal and urine samples were collected at 24 hour intervals and processed. Briefly, the collections began 4 days prior to the administration of the test drug and continued for an additional 5 days after the drug was given. Iron concentrations were determined by flame atomic absorption spectroscopy.
(§1) The iron chelators were solubilized in 40% Cremophor RH-40/water (v/v) and given orally and subcutaneously to the rats at the doses shown in Table 4. In the primates, DFO was dissolved in sterile H2O at a concentration of 50 or 100 mg/mL and given orally or subcutaneously at a volume of 1 ml/kg. The desferrithiocin analogues were solubilized in 40% Cremophor RH-40/water (v/v) and given orally to the monkeys at the doses shown in Table 4. However, the desferrithiocin analogues were administered subcutaneously as either a suspension in distilled H2O or as their sodium salts in solution as indicated in Table 4.
(§2) Iron clearance studies were carried out both in the non iron-overloaded, bile duct-cannulated rodent model and in the iron-overloaded Cebus apella monkey, and the results are reported as iron clearing efficiency (Table 4). This number is generated by dividing the net iron clearance [total iron excretion (bile or stool plus urine) minus background] by the theoretical iron clearance and multiplying by 100. The theoretical iron clearance is based on a 2:1 metal complex stoichiometry for 4′-(HO)-DADMDFT, a 1:1 stoichiometry for DFO, and a 1:1 stoichiometry for BDU, as shown in the Job's plot (FIG. 5). Data are presented as the mean±the standard error of the mean. The drugs were administered both orally (po) and subcutaneously (sc) to the rodents and primates; the positive control was DFO.

The test system of assay [2] is iron. Briefly: Iron clearance in the non iron-overloaded, bile duct-cannulated rodent model. The format is in vivo, Sprague-Dawley rats. The procedure: Briefly, male Sprague-Dawley rats averaging 450 g were housed in Nalgene plastic metabolic cages during the experimental period and given free access to water. The animals were anesthetized using sodium pentobarbital (55 mg/kg) administered intraperitoneally. The bile duct was cannulated using 22-gauge polyethylene tubing. The cannula was inserted into the duct about 1 cm from the duodenum and tied snugly in place. After threading through the shoulder, the cannula was passed from the rat to the swivel inside a metal torque-transmitting tether, which was attached to a rodent jacket around the animal's chest. The cannula was directed from the rat to a Gilson microfraction collector (Middleton, Wis.) by a fluid swivel mounted above the metabolic cage. Bile samples were collected at 3 hour intervals for 24 hours. The urine sample was taken at 24 hours and handling was as previously described. (Bergeron, R. J., et al., J. Med. Chem. 34:2072-2078 (1991).
as §1, §2

Assay [3] is described as follows: Quenching of the ABTS radical cation. Here is the method:
The iron chelators were tested for their ability to quench the radical cation formed from 2,2′-azinobis(3-ethylbenzothiazoline-6-sulfonic acid) (ABTS) by the method of Re et al. in Free Radic. Biol. Med. 26, 1231-1237 (1999). Briefly, a stock solution of ABTS radical cation was generated by mixing ABTS (10 mM, 2.10 mL) with K2S2O8 (8.17 mM, 0.90 mL) in H2O and […] deep blue-green ABTS radical cation was diluted in sufficient sodium phosphate (10 mM, pH 7.4) to give an A734 of about 0.900. Test compounds were added to a final concentration ranging from 1.25 to 15 μM, and the decrease in A734 was read after 1, 2, 4 and 6 min. The reaction was largely complete by 1 min, but the data presented are based on a 6-min reaction time.
In this assay, a fairly stable radical cation, ABTS^+, was examined, and Trolox, an analog of vitamin E, was used as a positive control. Briefly, the procedure involved generating the blue-green chromophore by the reaction of ABTS with K2S2O8. The radical has absorption maxima at λ=415, 645, 734, and 815 nm. The change in absorbance at 734 nm was noted 6 min after addition of the chelator of interest at various concentrations, and the slope of the ΔA734 vs. ligand concentration line was calculated.
The iron chelators were tested for their ability to quench the radical cation formed from 2,2′-azinobis(3-ethylbenzothiazoline-6-sulfonic acid) (ABTS) by a published method (Re, R., et al., Free Radical Biol. Med. 26:1231-1237 (1999). Briefly, a stock solution of ABTS radical cation was generated by mixing ABTS (10 mM, 2.10 mL) with K2S2O8 (8.17 mM, 0.90 mL) in H2O and allowing the solution to sit in the dark at room temperature for 18 hours. This stock solution of deep blue-green ABTS radical cation was diluted in sufficient sodium phosphate (10 mM, pH 7.4) to give an A734 of about 0.900. Test compounds were added to a final concentration ranging from 1.25 to 15 μM, and the decrease in A734 was read after 1, 2, 4 and 6 min. The reaction was largely complete by 1 min, but the data presented are based on a 6-min. reaction time.
This radical cation decolorization assay utilizes the pre-formed radical monocation of 2,2′-azinobis(3-ethylbenzothiazoline-6-sulfonic acid) (ABTS) and has been used to evaluate the antioxidant capacity of a large number of compounds and mixtures. Briefly, the change in absorbance of the blue-green chromophore was recorded after the addition of the chelator of interest at each of the different concentrations, and the slope of the ΔA734 vs. ligand concentration line was calculated. The positive control for this reaction was Trolox, an analogue of vitamin E. The decrease in A734 as a function of ligand concentration is the comparitor among the five compounds evaluated. Trolox, L1, DFO, (S)-4′-(HO)-DADMDFT and BDU (Table 3). All four of the iron chelators performed better than Trolox; DFO≈BDU>(S)-4′-(HO)-DADMDFT>L1>Trolox. Thus, all of these ligands could be expected to serve as excellent radical scavengers.

Assay [4] is described as follows: Prevention of iron-mediated oxidation of ascorbate (ascorbate-mediated reduction of Fe(III)). Conditions: ascorbate 100 μM, FeCl3 30 μM, pH 7.4, ligand/Fe ratios 0-3, 40 min. The procedure: (§3) The iron chelators were tested for their ability to diminish the iron-mediated oxidation of ascorbate by the method of Dean and Nicholson (Free Radical Res. 20, 83-101 (1994)). Briefly, a solution of freshly prepared ascorbate (100 μM) in sodium phosphate buffer (5 mM, pH 7.4) was incubated in the presence of FeCl3 (30 μM) and chelator (ligand/Fe ratios varied from 0-3) for 40 min. The A265 was read at 10 and 40 min; the ΔA265 in the presence of ligand was compared to that in its absence.
The role of chelators in either inhibition or promotion of the Fenton reaction is related to their capacity to prevent Fe(III) from being reduced to Fe(II). Fe(II) is required for the reduction of H2O2 to HO. and HO^−. The assay involves spectrophotometrically monitoring the disappearance of ascorbate at pH 7.4 in the presence of FeCl3 and chelator at several ligand/Fe ratios. Under these conditions, ascorbate is oxidized to an L-ascorbyl radical anion. This anion then disproportionates to dehydroascorbic acid and ascorbate.
as §3, with “chelators nitrilotriacetic acid (NTA), 1,2-dimethyl-3-hydroxypyridin-4-one (L1), desferrioxamine B (DFO), (S)-4′-(HO)-DADMDFT, and (S,S)-1,11-Bis[5-(4-carboxyl-4,5-dihydro-1,3-thiazol-2-yl)-2,4-dihydroxyphenyl]-4,8-dioxaundecane (BDU)” for “chelators”, “Nicholson, Free” for “Nicholson (Free”, “20:” for “20,”, “(1994).” for “(1994)).”
The measurement examines the disappearance of ascorbate. It is known that DFO, a hydroxamate chelator that forms a 1:1 complex with Fe(III) at a formation constant of approximately 10^31 M^−1, prevents ascorbate-mediated reduction of Fe(III); it serves as a positive control in the present study. Both NTA and L1 promote ascorbate-mediated reduction of Fe(III) and serve as negative controls.

The mark [5] stands for this setting: Table 1, A734, six-minute reaction, pH 7.4, 1.25 to 15 μM.

Take `O=C(O)[C@H]1CSC(c2cc(CCCOCCCOCCCc3cc(C4=N[C@@H](C(=O)O)CS4)c(O)cc3O)c(O)cc2O)=N1` [BDU, (S,S)-1,11-Bis[5-(4-carboxyl-4,5-dihydro-1,3-thiazol-2-yl)-2,4-dihydroxyphenyl]-4,8-dioxaundecane]: in the assay with iron [1] (75 μmol/kg sc), the “% stool (of iron excreted), monkeys” value was 98%; the “% urine (of iron excreted), monkeys” value is 2%; the “efficiency in monkeys (%)” value was 3.2±1.8% and 3.2 ± 1.8^g %. For the same compound, in the assay with iron [1] (150 μmol/kg sc, n = 3), the “% urine (of iron excreted), monkeys” value was 0%; the “efficiency in monkeys (%)” value is 2.1±1.4% and 2.1 ± 1.4^g,h %. Further, in the assay with iron [2] (150 μmol/kg po), the “% bile (of iron excreted), rodents” value came out at 80%; the “% urine (of iron excreted), rodents” value is reported as 20%; the “efficiency in rodents (%)” value is recorded as 0.9±0.4%. For the same compound, in the assay with iron [2] (150 μmol/kg sc), the “% bile (of iron excreted), rodents” value turned out to be 95%; the “% urine (of iron excreted), rodents” value was determined as 5%; the “efficiency in rodents (%)” value was 6.5±2.0%. Moreover, the “Slope × 10^3 OD units/μM (ABTS radical cation quenching)” value (shortened to “Slope × 10^3 OD units/μM”) in assay [3] (Table 3, A734, 6-min reaction, values marked b are the inventors' unpublished results) is listed as −136 × 10^3 OD units/μM. Moreover, the “effect on ascorbate-mediated reduction of Fe(III) (in words)” value (“effect on ascorbate-mediated reduction” for short) in assay [4] is given as “significant protection”.

As for `Nc1ccc(O)c(C(=O)O)c1` [Compound 5-ASA, 5-aminosalicylic acid], in assay [3] (setting [5]), the “Slope × 10^3 OD units/μM” value is recorded as −34.4 × 10^3 OD units/μM. Moreover, the “effect on ascorbate-mediated reduction” value is given as “promoted ascorbate-mediated reduction of Fe(III)” in assay [4] and “increased the rate of iron(III) reduction” in assay [4] (listed as 5-aminosalicylic acid).

As to `C[C@]1(C(=O)O)CSC(c2ccccc2O)=N1` [DADFT], in assay [3] (setting [5]), the “Slope × 10^3 OD units/μM” value is given as −25.1 × 10^3 OD units/μM.

Turning to `O=C(O)C1CSC(c2ccccc2O)=N1` (stereo not drawn) [DADMDFT, desazadesmethyldesferrithiocin], the “Slope × 10^3 OD units/μM” value in assay [3] (setting [5]) is −28.1 × 10^3 OD units/μM.

For `O=C(O)CN(CC(=O)O)CC(=O)O` [NTA, nitrilotriacetic acid], the “effect on ascorbate-mediated reduction” value in assay [4] is listed as “profoundly stimulatory effect; also recorded: promoted ascorbate-mediated reduction of Fe(III)”; in assay [4] (listed as nitrilotriacetic acid), “increased the rate of iron(III) reduction”.

With `COCCOCCOCCN(O)C(C)=O` [decyl hydroxamate, N-hydroxy,N-(3,6,9-trioxadecyl)acetamide], in assay [4], the “effect on ascorbate-mediated reduction” value is on record as “increased the rate of iron(III) reduction”.
